From article PMC11645656, “MRGPRX4 mediates phospho-drug associated pruritus in a humanized mouse model” (Science translational medicine, 2024)
Values joined by “and” are separate entries in the source; they are usually repeats but may differ in a detail not shown here. Equal values may be shown once. Read-outs that look alike come from different tables or passages of the source.

Tests used:
NP2-X4+ DRG neurons = assay: GCaMP6s calcium imaging of cultured NP2-X4+ DRG neurons; assay type: cell-based, mouse; details: 10 μM phospho-drugs; 1 mM CQ
From the text: Fig. 2. Phosphate monoester prodrugs induce itch in NP2-MRGPRX4+ mice through activating NP2 primary sensory neurons. (A) Mating strategy to generate NP2-X4+ mice. (B) In situ hybridization showing MRGPRX4 transcripts (magenta) in NP2-X4+ DRG as indicated by arrowheads (left) but not in littermate control NP2-WT (right). NP2 subpopulation accounts for 5% of total DRG neurons. DAPI, blue. Scale bar, 50 μm. […]. Data are expressed as mean ± SEM. *p< 0.05, **p< 0.01 and ***p< 0.001 by two-tailed unpaired Student’s t-test. ns = no statistical significance observed. (D and E) Traces of average (top, depicted as mean ± 95% confidence interval) and individual (bottom, reflected by the heatmap) calcium activity, measured by fluorescence intensity normalized to the baseline intensity (FT/F0) over time of NP2-X4+ (D) and NP2-WT (E) DRG neurons labelled with GCaMP6s (n = 110–150 neurons pooled from 3–7 independent culture vessels from 2–4 mice in each condition). 10 μM phospho-drugs and 1 mM CQ were added as indicated by the arrowheads. Neurons with FT/F0 > 1.5 after compound application were considered a positive responder. NP2-X4+: NP2-MRGPRX4+; DRG, dorsal root ganglia; CQ: chloroquine.
The procedures were performed following previously established protocols ([15]). Murine DRGs (from both male and female) were harvested from all spinal segments and digested in dispase (5 mg/ml) / type I collagenase (1 mg/ml) enzyme mix at 37 °C for an hour. Enzyme mix was replaced with complete DH10 media (90% DMEM/F12, 10% FBS, penicillin (100 units/ml), and streptomycin (100 μg/ml)) and gently triturated with 1 ml pipette tip until the media turned cloudy without visible tissue chunks. Dissociated tissues were filtered through a 70 μm filter and spun down 1250 rpm for 5 min at RT. Supernatant was removed and the cell pellet was resuspended in complete DH10 media. Cell suspension was then added on top of poly-D-lysine- and laminin-coated coverslips and sat for 1–2 h at 37°C. Complete DH10 media supplemented with NGF (50 ng/ml) was then added into the vessel. Neurons were allowed to recover overnight at 37°C for the next-day calcium imaging experiment.
Calcium imaging data was collected with a Nikon Eclipse TE 200 microscope. Time series GCaMP6 fluorescence intensity was acquired through the FITC/GFP channel. Before the imaging, cultured neurons were washed and equilibrated in CIB for 30 min at 37°C. In each trial, compounds (as indicated in the results) were added into the imaging chamber after a 30 s baseline GCaMP6 activity was collected. […] Neurons with GCaMP6 signal rose above 50% of the baseline intensity after compound application were counted as positive responders and the percentage of responding neurons was calculated. […]

WT NP1-3 DRG neurons = assay: GCaMP6s calcium imaging of NP1-3 DRG neurons from Pirt-Cre; Rosa-lsl-GCaMP6s mice; assay type: cell-based, mouse; details: 10 µM
Procedure: Calcium imaging data was collected with a Nikon Eclipse TE 200 microscope. Time series GCaMP6 fluorescence intensity was acquired through the FITC/GFP channel. […] Neurons with GCaMP6 signal rose above 50% of the baseline intensity after compound application were counted as positive responders and the percentage of responding neurons was calculated. […]
(top) and individual (bottom) calcium activity, measured by fluorescence intensity normaliz ed to […]
activity from the recorded neurons is shown in heatmap. […]

WT mice = assay: Itch behavioral study in WT mice across concentrations (fig. S4)
Procedure: Experimenters and subjects scoring the recorded videos were both blind to the mouse genotype and tested compounds. Behavioral tests comparing NP2-WT and NP2-X4+ scratching behavior were 6–12weeks old littermates including both genders. In brief, on the day preceding the experiment, animals were acclimated to the test chamber for at least 30 min and the experimenters performed mock injections 1–2 times in between. On the day of experiments, animals were habituated in test chambers for 10 min before receiving subcutaneous injection of 50ul compounds. Videos were recorded for 30 min after the injection. A bout of scratching was defined as a sustained scratching movement initiated by hindpaws toward the injection site (until the pause of the movement / withdrawal of the hindpaw). Scratching bouts were quantified within the 30 min record sessions.

MRGPRX4 S83L (L83) = MRGPRX4 S83L (L83) (Homo sapiens, UniProt Q96LA9); assay: Calcium mobilization assay (FLIPR), S83L MRGPRX4 transiently expressed in HEK293T cells; assay type: cell-based; design: expressed in transfected cells; host or cells: HEK293T, transient; details: for Calcium mobilization response (Fig. 4D dose-response): each cell one replicate; for EC50: Fig. 4E, unit not in the head, taken from Concentration (M) of the sheet and pEC50 [M] of Fig. 4E
From the text: Fig. 4. […] Hydrogen bond is shown as cyan dashed lines. […] Data are from three independent experiments, performed in triplicate. (E) pEC50 plots of various agonists toward S83- and L83-MRGPRX4 through calcium mobilization assay. […] Each data point represents an independent experiment, performed in triplicate. The extra sum-of-square F test was used to examine the difference in EC50 values. One-sided t-test was used for nateglinide. *p< 0.05, **p< 0.01 and ***p< 0.001. ns = no statistical significance. Both (D) and (E) are reported as the mean ± SEM. N.D.= no detectable response ≤ 100 μM.
HEK293 cells and MRGPRX4 stably expressed HEK293 cells were seeded in 100 μl culture media on 96-well plates at a density of 40,000 cells per well and incubated overnight. The next day, the media were replaced with a dye-loading solution from the FLIPR Calcium 5 assay kit (Molecular Devices), diluted in Hank's Balanced Salt Solution (HBSS) with 20 mM HEPES, pH 7.4. After 1 h of incubation at 37°C, cells were allowed to recover for 10 min in the dark at room temperature prior to performing intracellular calcium mobilization assay in a Flexstation-3 instrument with SoftMax®Pro 7.1 software (Molecular Devices). Serial concentrations of tested drugs were prepared in HBSS/HEPES solution at 3X concentration. […] Compounds were tested in triplicates and the signals were averaged. Responses were determined by subtracting the minimum signal (at the baseline before adding the drug) from the maximum signal (obtained after drug stimulation). Four-parameter logistic (4PL) curve fit was used to plot the dose-response curves. […] Both dose-response curve fitting and EC50s calculation are computed with GraphPad Prism software (version: 6.o or above).
To generate murine Mrgprs expressing cells, HEK293T cells (ATCC) were seeded on poly-D-lysine coated 96 well plate at 25,000 cells per well one day prior to transfection. HEK293T cells were transiently co-transfected with the mammalian expression plasmids carrying cDNA encoding the murine Mrgpr genes and plasmid inserted with cDNA encoding murine α-subunit of the heterotrimeric G15 protein (Gα15) in triplicates using Lipofectamine LTX reagents (Thermo Scientific). To generate WT, S83L, and alanine mutant MRGPRX4-expressing cells, HEK293T cells were seeded on poly-D-lysine coated 384 well plate at 12,000 cells per well one day prior to transfection. Mammalian expression plasmids pLX304 (vector from Addgene) carrying different MRGPRX4 coding sequences were transiently transfected into HEK293T cells in triplicates with Lipofectamine LTX reagents (Thermo Scientific). Intracellular calcium mobilization assays were performed after one day of transfection. Murine Mrgprs tested include Mrgpra1, Mrgpra2a, Mrgpra2b, Mrgpra3, Mrgpra4, Mrgpra6, Mrgpra9, Mrgpra10, Mrgpra11, Mrgpra12, Mrgpra14, Mrgprb5, Mrgprb6, Mrgprb10, Mrgprb11, and Mrgprc11. WT and mutant MRGPRX4 constructs tested include WT, S83L, R82A, R86A, R95A, W158A, Y250A, and Y254A.

mock = assay: Calcium mobilization assay (FLIPR), mock-transfected cells (Fig. 3E and 3F); assay type: cell-based
[1] = 1 mM subcutaneous nape injection
[2] = 10 mM subcutaneous nape injection

Chain of MRGPRX4 S83L (L83) (Q96LA9 whole entry, stated change not applied): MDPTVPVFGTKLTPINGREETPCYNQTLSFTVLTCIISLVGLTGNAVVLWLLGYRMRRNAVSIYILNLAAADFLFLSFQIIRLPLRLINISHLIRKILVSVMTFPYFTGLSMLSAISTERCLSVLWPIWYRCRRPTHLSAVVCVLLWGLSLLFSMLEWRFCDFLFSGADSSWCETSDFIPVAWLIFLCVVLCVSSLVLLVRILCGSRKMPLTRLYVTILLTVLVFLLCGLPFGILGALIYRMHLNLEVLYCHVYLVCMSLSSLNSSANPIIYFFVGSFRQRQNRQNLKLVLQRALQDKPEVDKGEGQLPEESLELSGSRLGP

| Compound | Calcium response of NP2-X4+ neurons (NP2-X4+ DRG neurons) | Activation of NP1–3 neuron populations (WT NP1-3 DRG neurons) | Scratching bouts (each well represents individual mouse) (WT mice; [1]) | Scratching bouts (each well represents individual mouse) (WT mice; [2]) | Calcium mobilization response (Fig. 4D dose-response) (MRGPRX4 S83L (L83); 5.08e-8 M) | Calcium mobilization response (Fig. 4D dose-response) (MRGPRX4 S83L (L83); 1.52e-7 M) | Calcium mobilization response (Fig. 4D dose-response) (MRGPRX4 S83L (L83); 4.57e-7 M) | EC50 (MRGPRX4 S83L (L83); read-out: EC50s (each well represents individual experiment)) | calcium mobilization response (Fig. 3E and 3F dose-response) (mock; 5.08e-9 M) | calcium mobilization response (Fig. 3E and 3F dose-response) (mock; 1.37e-7 M) | calcium mobilization response (Fig. 3E and 3F dose-response) (mock; 4.12e-7 M) | calcium mobilization response (Fig. 3E and 3F dose-response) (mock; 1.23e-6 M) | calcium mobilization response (Fig. 3E and 3F dose-response) (mock; 3.7e-6 M) | calcium mobilization response (Fig. 3E and 3F dose-response) (mock; 1.11e-5 M) | calcium mobilization response (Fig. 3E and 3F dose-response) (mock; 3.33e-5 M) | calcium mobilization response (Fig. 3E and 3F dose-response) (mock; 0.0001 M) | Calcium mobilization response (Fig. 4D dose-response) (MRGPRX4 S83L (L83); 1.52e-8 M) | Calcium mobilization response (Fig. 4D dose-response) (MRGPRX4 S83L (L83); 0.0001 M) | EC50 (MRGPRX4 S83L (L83); EC50s (each well represents individual experiment)) |
| --- | --- | --- | --- | --- | --- | --- | --- | --- | --- | --- | --- | --- | --- | --- | --- | --- | --- | --- | --- |
| O=C1NC(c2ccccc2)(c2ccccc2)C(=O)N1COP(=O)(O)O [Fosphenytoin] | strong calcium transients | few neurons were activated | 0 (2×) and 16 (2×) and 11 and 26 | 3 and 4 and 1 and 0 and 26 | 12.9092 | 15.1222 | 12.9092 | 1.09e-05 M and 5.99e-05 M and 1.97e-05 M | – | – | – | – | – | – | – | – | – | – | – |
| CC(C)c1cccc(C(C)C)c1OCOP(=O)(O)O [Fospropofol] | strong calcium transients | few neurons were activated | 16 and 12 and 11 and 28 | 5 and 20 and 15 and 16 | – | – | – | – | 10.7608 and 18.8313 and 12.7088 | 17.7181 and 25.7886 and 28.015 | 16.3266 and 13.822 and 21.6142 | 32.4677 and 38.8684 and 39.425 | 22.4491 and 40.2599 and 25.232 | 30.7979 and 29.963 and 39.7033 | 34.1374 and 32.1894 and 41.0947 | 28.2933 and 31.0762 and 40.2599 | 30.9484 | 92.0965 | 1.79e-07 M and 1.3e-07 M and 1.88e-07 M |
